In patent US11117905B2, “Bisaryl heterocycles as NRF2 activators” (GLAXOSMITHKLINE INTELLECTUAL PROPERTY DEVELOPMENT LIMITED, priority 2016, dated 2021):
Structures can show the parent of a compound that is named as a salt.

Key:
[1] = tested on: rats on a choline-deficient L-amino acid-defined diet; settings: cited from earlier work
[2] = tested on: rats in a cerebral ischemia-reperfusion model; settings: cited from earlier work
[3] = tested on: NRF2 wild-type and KO mice; settings: after administration, NRF2 wild-type vs KO mice; cited from earlier work
[4] = tested on: COPD macrophages and alveolar macrophages from cigarette smoke-exposed mice; settings: cited from earlier work
[5] = tested on: NQO1 specific enzyme activity in BEAS-2B cells (marker for NRF2 activation); assay: BEAS-2B NQO1 MTT Assay; type: cell-based; settings: NQO1 specific activity induction, 48 hours with compound
Outline: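 BEAS-2B cells were plated at 250,000 cells/mL and treated after overnight culture with compound for 48 h at 37° C, 5% CO2. NQO1 activity in crude lysates was read kinetically as MTT reduction at 570 nm over 30 min. pEC50 comes from ΔOD/min versus log concentration with a 3-parameter fit.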

## Cc1c(-c2cnccn2)ssc1=S [oltipraz]
[1]
  progression of histologic abnormalities, especially hepatic fibrosis: significantly attenuated progression

## CC(C)(C)c1cc(O)ccc1O [tBHQ, tert-butylhydroquinone]
[2]
  cortical damage: reduced cortical damage
[3]
  cortical glutathione levels: increased in NRF2 wild-type but not KO mice

## C[S+]([O-])CCCCN=C=S (stereo not shown) [Sulforaphane]
[4]; COPD macrophages and alveolar macrophages from cigarette smoke-exposed mice
  expression of Macrophage Receptor with Collagenous structure (MARCO): increases the expression of Macrophage Receptor with Collagenous structure (MARCO)
[4]; ex vivo and in vivo
  bacterial phagocytosis (Pseudomonas aeruginosa, non-typable Haemophilus influenzae) and bacterial clearance: improving in these cells bacterial phagocytosis

## O=C(NCc1ccccn1)Nc1nnc(-c2ccco2)o1 [NK-252]
[1]
  progression of histologic abnormalities, especially hepatic fibrosis: significantly attenuated progression

## CCn1cc(CC[C@@H](c2cc(CN3C[C@@H](C)Cc4ncccc4S3(=O)=O)c(C)s2)C(C)(C)C(=O)O)nn1 [Example 61, (R)-5-(1-Ethyl-1H-1,2,3-triazol-4-yl)-2,2-dimethyl-3-(5-methyl-4-(((S)-4-methyl-1,1-dioxido-4,5-dihydropyrido[2,3-f][1,2]thiazepin-2(3H)-yl)methyl)thiophen-2-yl)pentanoic Acid]
[5]; Homo sapiens, BEAS-2B, 48 h
  EC50: 1 to 10 nM

## CC[C@@H]1CN(Cc2cc([C@H](CC(=O)O)c3ccc4c(nnn4CC)c3C)sc2C)S(=O)(=O)c2cnccc2O1 [Example 47, (R)-3-(4-(((R)-4-Ethyl-1,1-dioxido-3,4-dihydro-2H-pyrido[4,3-b][1,4,5]oxathiazepin-2-yl)methyl)-5-methylthiophen-2-yl)-3-(1-ethyl-4-methyl-1H-benzo[d][1,2,3]triazol-5-yl)propanoic Acid]
[5]; Homo sapiens, BEAS-2B, 48 h
  EC50: 10 to 100 nM

## CC[C@@H]1CN(Cc2cc([C@@H](c3ccc4c(nnn4CC)c3C)C(C)(C)C(=O)Nc3nnn[nH]3)sc2C)S(=O)(=O)c2ccccc2O1 [Example 65, (S)-3-(4-(((R)-4-Ethyl-1,1-dioxido-3,4-dihydro-2H-benzo[b][1,4,5]oxathiazepin-2-yl)methyl)-5-methylthiophen-2-yl)-3-(1-ethyl-4-methyl-1H-benzo[d][1,2,3]triazol-5-yl)-2,2-dimethyl-N-(1H-tetrazol-5-yl)propanamide, 0.10Formic Acid Salt]
[5]; Homo sapiens, BEAS-2B, 48 h
  EC50: 10 to 100 nM

## CC[C@@H]1CN(Cc2cc(C(CC(=O)O)c3ccc4c(nnn4CC)c3C)sc2C)S(=O)(=O)c2ccccc2O1 (single isomer, unassigned; isomer 2) [Example 21, (R or S)-3-(4-(((R)-4-Ethyl-1,1-dioxido-3,4-dihydro-2H-benzo[b][1,4,5]oxathiazepin-2-yl)methyl)-5-methylthiophen-2-yl)-3-(1-ethyl-4-methyl-1H-benzo[d][1,2,3]triazol-5-yl)propanoic Acid Isomer 2]
[5]
  EC50: 100 to 1000 nM

## CC[C@H]1Cc2ccccc2S(=O)(=O)N(Cc2nc([C@@H](c3ccc4c(nnn4CC)c3C)C(C)(C)C(=O)Nc3cccnc3)sc2C)C1 [Example 42, (S)-3-(4-(((S)-4-Ethyl-1,1-dioxido-4,5-dihydrobenzo[f][1,2]thiazepin-2(3H)-yl)methyl)-5-methylthiazol-2-yl)-3-(1-ethyl-4-methyl-1H-benzo[d][1,2,3]triazol-5-yl)-2,2-dimethyl-N-(pyridin-3-yl)propanamide]
[5]; Homo sapiens, BEAS-2B, 48 h
  EC50: 10 to 100 nM

## CC[C@H]1Cc2ncccc2S(=O)(=O)N(Cc2nc([C@@H](c3ccc4c(nnn4CC)c3C)C(C)(C)C(=O)O)sc2C)C1 [Example 33, (S)-3-(4-(((S)-4-Ethyl-1,1-dioxido-4,5-dihydropyrido[2,3-f][1,2]thiazepin-2(3H)-yl)methyl)-5-methylthiazol-2-yl)-3-(1-ethyl-4-methyl-1H-benzo[d][1,2,3]triazol-5-yl)-2,2-dimethylpropanoic Acid]
[5]; Homo sapiens, BEAS-2B, 48 h
  EC50: < 1 nM

## CC[C@@H]1CN(Cc2cc([C@@H](c3ccc4c(nnn4CC)c3C)C(C)(C)C(=O)O)sc2C)S(=O)(=O)c2ccccc2O1 [Example 10, (S)-3-(4-(((R)-4-Ethyl-1,1-dioxido-3,4-dihydro-2H-benzo[b][1,4,5]oxathiazepin-2-yl)methyl)-5-methylthiophen-2-yl)-3-(1-ethyl-4-methyl-1H-benzo[d][1,2,3]triazol-5-yl)-2,2-dimethylpropanoic Acid]
[5]; Homo sapiens, BEAS-2B, 48 h
  EC50: < 1 nM
